We go through three compounds from patent US4068003A, “Method of medical treatment of myasthenia” (priority 1976, dated 1978).

Data set [1] in a line: Acute toxicity test, single high dose, rats. The data set is classed as in vivo, rats of Wistar strain. Particulars: for Maximum dose (no case of deaths): single dose, 7 days observation. The text has this: (§1) In order to evaluate the acute toxicity of a single high dose administration of Coenzyme Q10, male and female rats of Wistar strain and male and female mice of ICR-JCL strain were used, and oral, intramuscular, subcutaneous, and intravenous administrations were studied. For the oral administration of Coenzyme Q10, gum Arabic suspension was used. For the intramuscular, subcutaneous and intravenous administrations, Coenzyme Q10 was used as a solution containing a nonionic surfactant, Nikkol HCO-60. Nikkol HCO-60 is a trade mark of a non-ionic surfactant comprised of hydrogenated castor oil/polyoxyethylene-60 mole ether available from Nikko Chemicals, Co. Ltd., Japan.
(§2) Observation was carried out for 7 days by using six males and six females for each dose group.

Data set [2] can be described thus: Acute toxicity test, single high dose, mice. Format: in vivo, mice of ICR-JCL strain. The conditions noted are these: for Maximum dose (no case of deaths): single dose, 7 days observation.
Text: as §1, §2

A short description of data set [3]: Subacute oral toxicity test in rats (5 weeks). Format: in vivo, rats of Wistar strain. How it is done:
(§3) Coenzyme Q10 was compulsorily and orally administered every day for 5 weeks to each group consisting of 10 male rats and 10 female rats of Wistar strain. The dose was 40, 200, and 1000 mg/Kg/day, respectively. Coenzyme Q10 was used in the form of gum Arabic suspension, while the solution containing gum Arabic alone was used as the control group. Collection of blood and urine samples and autopsies were carried out 5 weeks after the initiation of administration.

Data set [4] is described as follows: Subacute oral toxicity test in rabbits (23 days). The data set is classed as in vivo. How it is done:
Coenzyme Q10 was compulsorily and orally administered every day for 23 days to each group consisting of 6 male rabbits and 5 female rabbits. The dose was 6, 60 and 600 mg/Kg/day, respectively. Coenzyme Q10 was used in the form of gum Arabic suspension, whereas the solution containing gum Arabic alone was used as the control group. On the 24th day, blood samples were collected from all the animals, and 3 males and 2 females from each group were then selectively autopsied.

The nature of data set [5]: Chronic oral toxicity test (26 weeks). Format: in vivo, rats of Wistar strain. How it is done: Coenzyme Q10 was compulsorily and orally administered to each group consisting of 10 male rats and 10 female rats of Wistar strain for consecutive 26 weeks in a ratio of 6 days a week. The dose was 6, 60 and 600 mg/Kg/day, respectively. Coenzyme Q10 was used in the form of gum Arabic suspension, whereas the solution containing gum Arabic alone is used as the control group. Collection of blood and urine samples and autopsies were carried out 26 weeks after the administration.

Data set [6] can be described thus: Teratogenesis test, rats. Format: in vivo. Particulars: rats, 6, 60, 600 mg/Kg/day.
Data set [7] in a line: Teratogenesis test, mice. The data set is classed as in vivo. Particulars: mice, 6, 60, 600 mg/Kg/day.
Data set [8] can be described thus: Clinical test in myasthenia gravis, case [I] (person). Format: in vivo, human. The protocol:
(§4) The effects of the present invention for the treatment of myasthenia gravis will be shown with reference to the results of clinical tests.
They were attacked with myasthenia. […] Ambenonium is a cholinesterase inhibitor and available, for example, under the trademark Myterase. One year before the first medical examination in this hospital, they took 20 mg/day of Ambenonium.
At the first medical examination, drooping of the left eyelid, disorder in the movement of the left eyeball and fatiguing of the limbs were observed. […] The administration according to the recipe was continued for 30 days and, thereafter, dosage of Ambenonium was reduced to 10 mg/day (morning and evening: 5 mg each). This treatment was continued for a further period of 30 days.

The nature of data set [9]: Clinical test in myasthenia gravis, case [II] (person). The data set is classed as in vivo, human. The protocol:
as §4
Thereafter, they took 20-25 mg/day of Ambenonium perorally intermittently.
At the first medical examination, eye symptoms such as eyelid drooping and double vision and evervation in limbs were remarkable. As for the walking ability, they barely walked 100 m even when the effect of Ambenonium was exerted.
By peroral administration of 25 mg/day of Ambenonium and 30 mg/day of Coenzyme Q10, muscular contraction was caused 2-3 days after the start of the treatment. Dosage of Ambenonium was reduced to 20 mg/day. After the treatment was continued according to this recipe for one week, the heavy feeling of the body, double vision and the eye symptoms were relieved. Continuous 400 m walking was made possible.

Data set [10] can be described thus: Clinical test in myasthenia gravis, case [III] (person). The data set is classed as in vivo, human.
Text: as §4
The patient was attacked by myasthenia. At the first medical examination, only eyelid drooping (eye fissure: left 5 mm, right 2 mm) was observed.

A short description of data set [11]: Overall result of acute, subacute, chronic toxicity and teratogenesis tests. Format: in vivo.
Text: as §1, §3
Coenzyme Q10 was compulsorily and orally administered every day for 23 days to each group consisting of 6 male rabbits and 5 female rabbits. The dose was 6, 60 and 600 mg/Kg/day, respectively. […]

The mark [12] stands for this setting: all routes, maximum doses of Table 1.
Setting [13] is: any administration group, 7 days.
[14] abbreviates: at the maximum dose in each administration route.
Setting [15] is: intramuscular, Nikkol HCO-60 solution.
Setting [16] is: intravenous, Nikkol HCO-60 solution.
Where [17] appears, read: subcutaneous, Nikkol HCO-60 solution.
Setting [18] is: rats, 40, 200, 1000 mg/Kg/day oral, 5 weeks.
Where [19] appears, read: rabbits, 6, 60, 600 mg/Kg/day oral, 23 days.
The mark [20] stands for this setting: group not stated, spontaneous pneumonia and aspiration pneumonia due to erroneous administration.
Setting [21] is: rats, 6, 60, 600 mg/Kg/day oral, 26 weeks, vs control group.
The mark [22] stands for this setting: Coenzyme Q10 30 mg/day, Ambenonium reduced to 20 mg/day, one week.
Where [23] appears, read: Coenzyme Q10 30 mg/day peroral in combination with Distigmine Bromide.

For `COC1=C(OC)C(=O)C(C/C=C(\C)CC/C=C(\C)CC/C=C(\C)CC/C=C(\C)CC/C=C(\C)CC/C=C(\C)CC/C=C(\C)CC/C=C(\C)CC/C=C(\C)CCC=C(C)C)=C(C)C1=O` [Coenzyme Q10], the “toxicity (acute)” value in [1] and in data set [2] was “extremely low” throughout. For the same compound, the LD50 result in data set [1] (setting [12]) and in [2] (setting [12]) was “far higher than the maximum dose mentioned above” throughout. For the same compound, the “general condition, body weight, food intake and autopsy findings” value in data set [1] (setting [13]) and in data set [2] (setting [13]) was “no change” in each case. Besides, the deaths result in [1] (setting [14]) and in data set [2] (setting [14]) was “no case of deaths” each time. Moreover, the “Maximum dose (no case of deaths)” value in data set [1] (setting [15]) turned out to be 500 mg/kg; in data set [1] (setting [16]) it was 250 mg/kg; in data set [1] (oral, gum Arabic suspension), 4000 mg/kg; in [1] (setting [17]), 500 mg/kg; in data set [2] (setting [15]), 500 mg/kg; in [2] (setting [16]), 250 mg/kg. In addition, the “Maximum dose (no case of deaths)” value in data set [2] (oral, gum Arabic suspension) was 4000 mg/kg; in data set [2] (setting [17]), 500 mg/kg. Besides, the “dead animals during the experiment” value in [3] (group not stated, spontaneous pneumonia and aspiration pneumonia due to error of administration) amounted to 4 animals. Also, the “toxicity (subacute oral)” value is “not recognized” in data set [3] (rats, 5 weeks) and “not recognized” in data set [4] (rabbits, 23 days). In addition, the “hematological test and biochemical test of blood and urine” value in [3] (setting [18]) is listed as “No significant change”. Besides, the “weight of each organ” value in data set [3] (setting [18]) was “no significant change”; in data set [4] (setting [19]), “no effect”. Also, in data set [3] (rats, 40, 200, 1000 mg/Kg/day oral, 5 weeks, vs control group), the “general condition and body weight” value was “no difference”. Further, the “electron-microscopic observation of liver (minute structure)” value in data set [4] (7th, 14th and 24th days) is recorded as “not recognized abnormal findings”. In addition, the “macroscopical and histological observation” value in data set [4] (hematoxylin.Eosine staining and liver fat staining, 23 days) is on record as “abnormalities were not recognized”; in [5] (hemoxylin.Eosine staining and liver fat staining, 26 weeks, vs control group), “abnormalities were not recognized”. For the same compound, the “hematological test and biochemical test of blood” value in data set [4] (setting [19]) was “Abnormal findings were not obtained”. In addition, the “general condition and increase of body weight” value in data set [4] (rabbits, 6, 60, 600 mg/Kg/day oral, 23 days, vs control group) is “no difference”. In data set [5] (setting [20]), the “deaths, females” value is listed as 3 females. Moreover, the “deaths, males” value in data set [5] (setting [20]) worked out at 11 males. The body weight result in [5] (setting [21]) was “increased the same as that of the control group”. Also, in [5] (setting [21]), the general condition entry is listed as “no difference”. In addition, in data set [5] (rats, 26 weeks), the “toxicity (chronic oral)” value is listed as “no toxicity was observed”. Also, the weights of organs result in [5] (rats, 26 weeks) was “no significant increase and decrease”. In addition, the “biochemical tests of blood and urine” value in [5] (rats, 26 weeks, vs control group) is recorded as “No significant changes”. In addition, the “leukocytal percentages (hematological findings)” value in [5] (rats, 26 weeks, some increase and decrease, not dose-related) is reported as “within the range of physiological fluctuations”. Moreover, the “adverse effects in mothers, fetuses, and newborns” value in data set [6] and in data set [7] was “no adverse effects” throughout. For the same compound, in data set [8] (30 days combination, then Ambenonium reduced to 10 mg/day for further 30 days), the “walking and work ability” value was “long distance walking and light work became possible”. In addition, the “symptoms after further reduction of Ambenonium” value in data set [8] (Ambenonium reduced to 5 mg/day) is “no worsening of the symptoms was caused and the patient is now getting better”. The “improvement in symptoms (walking, breathing)” value in [8] (Coenzyme Q10 30 mg/day peroral in combination with Ambenonium, at the start) is “an improvement in walking and relief in a feeling of difficulty in breathing”. In [9] (Coenzyme Q10 30 mg/day with Ambenonium 25 mg/day, peroral), the “time to muscular contraction after start of treatment” value lay in the range of 2 to 3 days. Moreover, the “continuous walking made possible” value in data set [9] (setting [22]) is given as 400 m. Further, the “heavy feeling of the body, double vision and eye symptoms” value in [9] (setting [22]) is recorded as “relieved”. In addition, the “ascending and descending stairs” value in data set [10] (setting [23]) is “could ascend and descend stairs easily”. The “need for the dropping lotion” value in data set [10] (setting [23]) is “became unnecessary”. The “opening of the eyelids” value in data set [10] (setting [23]) was “improve and to stabilize the opening of the eyelids”. Further, in [10] (Coenzyme Q10 30 mg/day peroral in combination with Distigmine Bromide, difficult before), the “walking straight looking ahead” value is “could walk easily”. The overall safety entry in data set [11] is listed as “very safe drug, without side-effects”.

Take `CN(CCCCCCN(C)C(=O)Oc1ccc[n+](C)c1)C(=O)Oc1ccc[n+](C)c1` [Distigmine Bromide]: the “eye fissure, left” value in [10] (Distigmine Bromide 10 mg/day peroral plus 0.5 % eye drops, 6 months, before: left 5 mm) was 6 mm. Also, the “eye fissure, right” value in data set [10] (Distigmine Bromide 10 mg/day peroral plus 0.5 % eye drops, 6 months, before: right 2 mm) stood at 4 mm. The “symptoms (eyelid drooping)” value in data set [10] (Distigmine Bromide peroral plus eye drops, 6 months) is “improved a little”.

`CC[N+](CC)(CCNC(=O)C(=O)NCC[N+](CC)(CC)Cc1ccccc1Cl)Cc1ccccc1Cl` [Ambenonium]: in data set [8] (Ambenonium alone, 20 mg/day peroral, 4 months), the “improvement in the symptoms” value was “no significant improvement in the symptoms”. For the same compound, the walking ability in data set [9] (at first medical examination, under effect of Ambenonium, before Coenzyme Q10, barely walked) was roughly 100 m.
